Results from patent US20120027812A1, “INTRAOCULAR LENSES TREATED WITH ALKYLPHOSPHOCHOLINES FOR PHARMACOLOGICAL AFTERCATARACT PROPHYLAXIS” (priority 2009, published 2012).

Experiments:
rat retina [1] = assay: Functional analysis on retina ex vivo (electroretinogram); conditions: concentration of up to 25 μM in the total solution
[2] = tested on: Müller glial cells and subretinal pigment epithelial cells; conditions: single intravitreal administration one day after induced retinal detachment; cited from earlier work
[3] = tested on: human lens epithelial cells; assay: APC-coated intraocular lens laid on cultured lens epithelial cells (Example 3, FIG. 6 and 7); format: cell-based; conditions: as coating on IOLs of hydrophobic acrylates, hydrophilic acrylates and silicones; MTT
Protocol: A tetrazolium reduction assay [MTT (3-[4,5-dimethylthiazol-2-yl]-2,5-diphenyltetrazolium bromide] (Sigma-Aldrich) was carried out to determine the cell count. The intraocular lenses were removed, the cells were washed with PBS and incubated with the MTT reagent for 1 hour at 37° C. Only vital cells metabolise the solution. Subsequently, the cell membrane was dissolved with DMSO (dimethylsulphoxide) and the optical thickness was measured in the ELISA reader at 550 nm. In this case, the optical thickness correlates with the number of proliferating cells.
The intraocular lenses coated with alkylphosphocholines are introduced into a cell culture volume of 500 μl, which corresponds to the volume of the human lens capsular bag in which the intraocular lenses are implanted in the human cataract operation. Moreover, the coated intraocular lenses in vitro are introduced into a cell culture with human lens epithelial cells which are already proliferating. […]
Effectiveness of an Intraocular Lens Coated with APCs in the Prophylaxis of Aftercataract Intraocular lenses are coated with APC, as explained in Example 1,m and kept sterile at room temperature. […] After 3, 5 and 7 days, the lenses are removed and the cell count of the cells left in the cell culture dishes are determined, as described in 2.1, by cell counters and by the MTT test. […]

[4] = Stability of the coating to washing with physiological saline solution; format: physicochemical; conditions: repeated washing or rinsing with physiological saline solution
Excerpt: 1.3 Stability of the coating 10 intraocular lenses were coated with erufosin, as described in example 1.2. The lenses were subsequently each separately transferred into new test tubes and subjected to four washing steps with physiological saline solution. In a further extraction step using methanol/acetonitrile (ratio 9:1), the erufosin adhering to the lenses was removed and determined by mass spectroscopy. The amount of erufosin determined was between […] per lens.

rat eyes (retina) = conditions: seven days after a single injection into the vitreous body; cited from earlier work
cat eyes (retina) = assay: Long-term tolerance after intravitreal administration in cat eyes; format: in vivo; conditions: 28 days after intravitreal administration
rat retina [5] = conditions: clinically administered doses (4 mg/ml); cited from earlier work

SMILES: CCCCCCCC/C=C\CCCCCCCCCCCCOP(=O)([O-])OCCC[N+](C)(C)C [ErPC3, erucylphosphohomocholine]
- changes in the electroretinogram (rat retina [1]): did not produce any changes in the electroretinogram
- intraretinal proliferation of Müller glial cells and subretinal pigment epithelial cells [2]: significant inhibition
- morphologically detectable toxic side-effects [2]: without morphologically detectable toxic side-effects
- cell growth of lens epithelial cells which are already proliferating [3]: can inhibit the cell growth
- removal of the coating from the lenses [4]: no noticeable removal

SMILES: CCCCCCCC/C=C\CCCCCCCCCCCCOP(=O)([O-])OCC[N+](C)(C)C [ErPC, erucylphosphocholine]
- damage to the retinal function (light and electron microscopy, ERG) (rat eyes (retina)): no damage to the retinal function could be detected
- retinal toxicity (cat eyes (retina)): no sign of retinal toxicity

SMILES: CCCCCCCC/C=C\CCCCCCCCOP(=O)([O-])OCC[N+](C)(C)C [OIPC, oleylphosphocholine]
- cell growth of lens epithelial cells which are already proliferating [3]: can inhibit the cell growth

SMILES: C[C@]12C=CC(=O)C=C1CC[C@H]1[C@@H]3C[C@@H](O)[C@](O)(C(=O)CO)[C@@]3(C)C[C@H](O)[C@@]12F [triamcinolone]
- retinal toxicity on the retina ex vivo test subject (rat retina [5]): retinal toxicity
